# Assay results taken from ChEMBL document CHEMBL5724803, “Viability screening in matched tumor and normal assay results for EUbOPEN Chemogenomics Library” (2024).
# Square brackets hold non-standard residues; d marks the D form. Peptide text beside a SMILES is read from it. Arg(Me) = CNC(=N)NCCC[C@H](N)C(=O)O; d3Pal = N[C@H](Cc1cccnc1)C(=O)O; d4Pal = N[C@H](Cc1ccncc1)C(=O)O; azaGly = NNC(=O)O
# System: Colon organoid
# Type: functional, Homo sapiens
row,SMILES,Cell Viability Ratio
1,CNC(=O)c1ccccc1Nc1cc(Nc2ccc(N3CCOCC3)cc2OC)ncc1C(F)(F)F [VS-4718],0.4552
2,CN1CCN(Cc2ccc(Nc3ncc(Cl)c(Nc4ccccc4S(=O)(=O)N(C)C)n3)cc2)CC1 [DUBERMATINIB],0.1542
3,Cc1cc(-n2nc(Cc3cc(F)cc(C(F)(F)F)c3)nc2C)ccc1C(N)=O [TP-024],0.8967
4,O=C(O)[C@H]1[C@H](Cn2nnc3ccccc3c2=O)CC[C@@H]1C(=O)c1ccc(OCCC2CCOCC2)cc1 [BAY-7598],1.026
5,Cc1cnc(-c2cc(Cl)ccc2F)cc1-n1c(=O)n(CC(N)=O)c2cnccc21 [TP-008],1.1125
6,O=C(N[C@H]1CCCCC/C=C\C2C[C@@]2(C(=O)O)NC(=O)[C@@H]2C[C@@H](Oc3ccncc3)CN2C1=O)OC1CCCC1 (stereo not given in full) [BI 1675],1.111
7,O=C(O)c1ccc(-c2c[nH]c3ncc(-c4ccccc4)cc23)cc1C1CCCC1 [GSK-650394],1.062
8,Cc1c(C(=O)Nc2ccc(Oc3ccnc4[nH]cc(-c5ccccc5)c34)c(F)c2)c(=O)n(-c2ccc(F)cc2)n1C,0.9213
9,CS(=O)(=O)NCC[C@H](NC(=O)c1cncc2c1cnn2-c1ccc(F)cc1)c1ccnc(S(C)(=O)=O)c1 [BI 9307],1.198
10,COc1ccc2c(O[C@@H]3C[C@H]4C(=O)N[C@]5(C(=O)O)CC5/C=C\CCCCC[C@H](NC(=O)OC5CCCC5)C(=O)N4C3)cc(-c3csc(NC(=O)C(C)C)n3)nc2c1C (stereo not given in full) [BI 1230],0.9938
11,O=C1NC(c2ccccn2)Sc2ccccc21 (stereo not given) [BTZO-4],1.041
12,CNC(=N)NCCC[C@H](NC(=O)[C@H](CC(C)C)NC(=O)NNC(=O)[C@H](Cc1ccccc1)NC(=O)[C@H](CO)NC(=O)[C@H](CC(N)=O)NC(=O)[C@@H](Cc1ccncc1)NC(=O)[C@H](N)Cc1ccc(O)cc1)C(=O)N[C@@H](Cc1ccccc1)C(N)=O [KISS1-305] (H-[dY][d4Pal]NSF[azaGly]L[Arg(Me)]F-NH2),1.123
13,CN1CCN(C(=O)C(C)(C)c2ccc(C(=O)Nc3cn4cc(-c5cc(C(C)(C)C)cc(C(C)(C)C)c5)ccc4n3)cc2)CC1 [T3-CLK-N],0.9471
14,COc1cc(-c2cn([C@H]3CCc4ccccc4N(CC(F)(F)F)C3=O)nn2)ccc1-n1ccc(C)n1,0.9931
15,Cc1cc(NC(=O)c2cccc(S(F)(F)(F)(F)F)c2)cc(-n2ccn3nc(-c4cccnc4)cc23)c1 [BAY-309],1.076
16,CNC(=O)Nc1ccc2c(c1)[C@@]1(CC2)OC(=O)N(CC(=O)N(Cc2ccc(F)cc2)[C@@H](C)C(F)(F)F)C1=O [A-486],0.9599
17,O=C(NS(=O)(=O)c1ccc(NCC2CCOCC2)c([N+](=O)[O-])c1)c1ccc(N2CCN(Cc3ccc(C(F)(F)F)cc3-c3ccc(Cl)cc3)CC2)cc1Oc1cnc2[nH]ccc2c1 [A-1210227],0.9477
18,Nc1cnc(N2CCc3cc(S(=O)(=O)Nc4c(F)cc(Cl)cc4F)cc(N4CCCC4=O)c32)nc1 [TP-020n],1.046
19,CNC(=N)NCCC[C@H](NC(=O)[C@H](CC(C)C)NC(=O)NNC(=O)[C@H](Cc1ccccc1)NC(=O)[C@H](CO)NC(=O)[C@H](CC(N)=O)NC(=O)[C@@H](Cc1cccnc1)NC(=O)[C@H](N)Cc1ccc(O)cc1)C(=O)NCC(N)=O [KISS1-543] (H-[dY][d3Pal]NSF[azaGly]L[Arg(Me)]G-NH2),1.03
20,CC(=O)N1CCC(c2ccc(C(=O)NC3=NCCN3)cc2C(F)(F)F)CC1 [BI 0054],1.041
21,Cc1c(N2CCNCC2)nc2ccc(Br)cc2c1C(=O)NC[C@H](CCC(=O)O)c1ccccc1Cl [BAY-403],0.887
22,COc1cc(N(C)c2ccnc3ccc(C(F)(F)F)cc23)cc(OC)c1OC,0.896
23,Cc1nc(N2CC[C@H](O)C2)ncc1-c1cc(C(F)(F)F)cc2[nH]ncc12,1.041
24,CC(C)CC(=O)N1CCc2nc(-c3ccc(Br)cc3)nc(N(C)Cc3ccccc3)c2C1 [THPP-1-NC],1.2658

row,SMILES,Cell Viability Ratio
1,CN1C(=O)[C@@H](N2CCc3c(nn(Cc4ccccc4)c3Br)C2=O)COc2ccccc21 [TP-030-2],1.065
2,Nc1nc(NCc2ccccc2)nc(-c2cccc(CO)c2)n1 [ZINC32547799],1.205
3,CCN(CC)S(=O)(=O)Nc1cccc(-c2ccc3c(NC(=O)C4CC4)n[nH]c3c2)c1,1.062
4,CN(C)C(=O)N1CC[C@H](NC2=Nc3cc(F)ccc3N(CC(F)F)c3ccc(Cl)cc32)C1,0.9552
5,Cc1cccc(-c2cnc3occ(-c4ccc(C(=O)O)c(C5CCCC5)c4)c3c2)c1,0.9583
6,COc1ccc2cc(OCC3(C(=O)O)CN(C(=O)c4ccc(F)cc4)C3)ccc2c1 [PF-04418948],1.076
7,O=C(Nc1ccc(-n2nc(-c3cccnc3)cc2C(F)(F)F)cn1)c1ccc(-c2ccccc2)c(F)c1 [BI 2049],1.116
8,Cc1noc([C@H]2C[C@@H](c3ccc(C(F)(F)F)cc3)CN(C(=O)N3CCS(=O)(=O)C3)C2)n1 [BAY-448],0.9504
9,O=C(Nc1cnc(Oc2ccc(F)cc2)nc1)N1CCc2ncccc2[C@@H]1c1ccc(F)cc1 [BAY-899],1.086
10,CC1=C(C#N)C(c2ccc3[nH]nc(C)c3c2)C(C#N)=C(C)N1 [BAY-474],0.9495
11,N#CC1(c2ccccn2)CCN(Cc2cc(C(=O)N3CCCC3)c(=O)n3ccccc23)CC1 [MSD-M1PAM-NC],1.068
12,CCOC(=O)c1cc2cc(-c3cc(C(=O)NCc4ccc(C(=O)O)cc4)nn3C)ccc2[nH]1 [BI 4394],0.9253
13,O=C(O)[C@@H]1[C@@H](Cn2nnc3ccccc3c2=O)CC[C@H]1C(=O)c1ccc(OCCC2CCOCC2)cc1 [BAY-694],1.051
14,C[C@H](NC(=O)Nc1cc2[nH]ncc2c(CO)n1)c1ccccn1 [ERKi-NC],1.034
15,Cl.Cl.NC1(c2ccc(-c3nc4ccn5c(=O)[nH]nc5c4cc3-c3ccccc3)cc2)CCC1,1.463
16,Cn1nc(C(F)(F)F)cc1-c1cnc(N2CCc3cc(S(=O)(=O)Nc4c(F)cc(Cl)cc4F)cc(N4CCCC4=O)c32)nc1 [TP-020],0.9629
17,CCCCNc1ncc(-c2ccc(CN3CCOCC3)cn2)c(N[C@H]2CC[C@H](O)CC2)n1,1.102
18,O=C(NCc1ncc(C(F)(F)F)cc1Cl)c1ccc2c(c1)C1(CCS(=O)(=O)CC1)[C@@H](C1CC1)N2S(=O)(=O)c1ccc(F)cc1 [BAY-786],1.0741
19,CCS(=O)(=O)c1cc2cc(C[C@](O)(CC(C)(C)c3ccc(F)cc3C(N)=O)C(F)(F)F)[nH]c2cn1 [BI 653048],0.9178
20,Cn1cnc2c(F)c(Nc3ccc(Br)cc3Cl)c(C(=O)NOCCO)cc21 [SELUMETINIB],1.4315
21,Cc1cc(Nc2nccc(C)n2)cc(-c2cnc([C@@]3(O)CC[C@H](C(=O)O)C(C)(C)C3)s2)c1 [MRL-SYKi],0.8949
22,O=C(NNS(=O)(=O)c1ccccc1)c1cc(-c2ccnnc2)ccc1F [WM-2474],1.138
23,Cc1cn(-c2cc(NC(=O)c3ccc4c(c3)CN(c3cncnc3)C[C@@H]4C)cc(C(F)(F)F)c2)cn1,1.531
24,COc1ccc2c(c1)O[C@H](c1ccc(OC)c(OC)c1)C[C@@H]2NC(=O)C1(c2ccc3c(c2)OC(F)(F)O3)CC1 [A-1596584],0.985

row,SMILES,Cell Viability Ratio
1,Clc1cccc(-c2nnnn2Cc2cccnc2)c1Cl,0.9298
2,CN1CCN(Cc2cc(NC(=O)c3ccc4c(c3)CN(c3ccccc3)CC4)cc(C(F)(F)F)c2)CC1,1.189
3,CCCCN(Cc1ccccc1)C(=O)c1ccc(S(=O)(=O)Nc2ccccc2)cc1,1.3021
4,O=c1nc(-c2ccccn2)sc2ccccc12 [BTZO-1],0.8779
5,Cn1cc(-c2ccc3occ(-c4ccccc4-c4ccccc4)c3n2)cn1,0.9405
6,O=C(c1ccc(F)cc1)N1CC(COc2ccc(Br)cc2)(C(=O)O)C1 [PF-04475866],0.9754
7,CC1=C(C#N)C(c2ccc3c(c2)c(NC(=O)c2ccccc2C)nn3C)C(C#N)=C(C)N1 [BAY-974],1.012
8,CN(C)C(=O)Cn1cc(-c2nc(C3(c4ccc(-c5cnc(N)nc5)cc4)CC3)no2)cn1 [BI 0153],0.9292
9,CCN(Cc1ccc(Cl)cc1)c1ncc(C(=O)NCCCN2CCCC2=O)c(NC2CCCC2)n1,1.023
10,C[C@H](NC(=O)c1cnc2n1[C@](C)(Cc1ccc(C#N)cc1)C(=O)N2c1cc(Cl)c(F)c(Cl)c1)C(=O)NC1(c2ccccn2)CC1 [BI 1950],0.9219
11,CC(=O)c1c(NS(C)(=O)=O)c2cc(-c3ccc(Cl)cc3)c(-c3ccc(Cl)cc3Cl)nc2n(C)c1=O [MRL-CB1-NC],1.02
12,COc1ccc2c(c1)O[C@@H](c1ccc(OC)c(OC)c1)C[C@H]2NC(=O)C1(c2ccc3c(c2)OC(F)(F)O3)CC1 [A-1596586],1.062
13,c1ccc2oc(-c3csc(C4CCN(Cc5nc6ncccc6[nH]5)CC4)n3)cc2c1,0.6127
14,C[C@@H](c1cccc(CN)c1)n1cc(Cl)cc(C(N)=O)c1=N.Cl,1.078
15,CCOCCn1cc(C(=O)Nc2ccc(-n3nc(-c4cccnc4)cc3C(F)(F)F)cn2)ccc1=O [BI 1935],0.9955
16,CCS(=O)(=O)c1cc2cc(C[C@@](O)(CC(C)(C)c3ccc(F)cc3C(N)=O)C(F)(F)F)[nH]c2cn1 [BI 3047],1.1136
17,CCCCN(CCCC)C(=O)CN1C[C@H](c2cc(OC)c3c(c2)OCO3)[C@@H](C(=O)O)[C@@H]1CC(C)(C)CCC.Cc1ccc(S(=O)(=O)O)cc1,0.9627
18,C[C@@H]1CN(c2cc(-c3nn(C)c4ccc(OC5(C)CC5)cc34)ncn2)C[C@H](C)O1 [MLi-2-NC],1.036
19,COc1cc(-c2cn([C@H]3CCc4c(F)cccc4N(CC(F)(F)F)C3=O)nn2)ccc1-n1cnc(C)c1,1.087
20,Cc1c(NC(=O)c2cc(C(N)=O)nc3cc(F)ccc23)c(C(F)(F)F)nn1Cc1ccc(C#N)cc1 [BAY-876],1.117
21,COCCOc1nc(-c2ccc(Cl)nc2)nc2c1CN(C(=O)c1ncn3ccccc13)CC2 [THPP-1],1.038
22,Cl.Cl.Cl.c1ccc(N2CCN(Cc3nc4ccccc4[nH]3)CC2)nc1,0.9546
